Drawing on patent US10676465B2, “GLP-1 receptor agonists and uses thereof” (Pfizer Inc., priority 2018, dated 2020), this text covers EC50 and Emax for nine compounds.

Where two headings read alike, the source gives them in different places.

The target of assay [1] is human GLP-1R (Homo sapiens, UniProt P43220, G168S). As to the kind of experiment: CHO GLP-1R Clone H6 - Assay 1 (HTRF cAMP agonist assay). It counts as cell-based. The note with it: for EC50: CHO GLP-1R Clone H6, cAMP HTRF, geometric mean; for Emax: CHO GLP-1R Clone H6, arithmetic mean, relative to saturating GLP-1 (1 μM).
Sequence of human GLP-1R (Homo sapiens, UniProt P43220, G168S) (P43220 24-463 G168S limits assumed): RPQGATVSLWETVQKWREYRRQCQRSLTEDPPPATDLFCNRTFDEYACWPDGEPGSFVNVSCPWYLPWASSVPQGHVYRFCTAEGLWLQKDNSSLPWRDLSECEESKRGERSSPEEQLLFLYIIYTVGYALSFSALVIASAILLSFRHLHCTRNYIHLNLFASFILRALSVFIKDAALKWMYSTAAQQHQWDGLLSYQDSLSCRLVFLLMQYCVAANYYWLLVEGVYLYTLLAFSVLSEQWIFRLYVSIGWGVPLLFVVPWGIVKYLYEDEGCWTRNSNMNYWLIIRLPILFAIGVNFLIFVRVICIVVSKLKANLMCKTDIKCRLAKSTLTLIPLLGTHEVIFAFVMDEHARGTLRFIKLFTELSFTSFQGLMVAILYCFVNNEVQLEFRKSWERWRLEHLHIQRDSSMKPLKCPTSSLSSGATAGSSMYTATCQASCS
Protocol: GLP-1R-mediated agonist activity was determined with a cell-based functional assay utilizing an HTRF (Homogeneous Time-Resolved Fluorescence) cAMP detection kit (cAMP HI Range Assay Kit; CisBio cat #62AM6PEJ) that measures cAMP levels in the cell. The method is a competitive immunoassay between native cAMP produced by the cells and exogenous cAMP labeled with the dye d2. The tracer binding is visualized by a mAb anti-cAMP labeled with Cryptate. The specific signal (i.e. energy transfer) is inversely proportional to the concentration of cAMP in either standard or experimental sample.
The human GLP-1R coding sequence (NCBI Reference Sequence NP_002053.3, including naturally-occurring variant Gly168Ser) was subcloned into pcDNA3 (Invitrogen) and a cell line stably expressing the receptor was isolated (designated Clone H6).
Cells were removed from cryopreservation, re-suspended in 40 mL of Dulbecco's Phosphate Buffered Saline (DPBS—Lonza Cat #17-512Q) and centrifuged at 800×g for 5 minutes at 22° C. The cell pellet was then re-suspended in 10 mL of growth medium [DMEM/F12 1:1 Mixture with HEPES, L-Gln, 500 mL (DMEM/F12 Lonza Cat #12-719F), 10% heat inactivated fetal bovine serum (Gibco Cat #16140-071), 5 mL of 100× Pen-Strep (Gibco Cat #15140-122), 5 mL of 100×L-Glutamine (Gibco Cat #25030-081) and 500 μg/mL Geneticin (G418) (Invitrogen #10131035)]. A 1 mL sample of the cell suspension in growth media was counted on a Becton Dickinson ViCell to determine cell viability and cell count per mL. The remaining cell suspension was then adjusted with growth media to deliver 2000 viable cells per well using a Matrix Combi Multidrop reagent dispenser, and the cells were dispensed into a white 384 well tissue culture treated assay plate (Corning 3570). The assay plate was then incubated for 48 hours at 37° C. in a humidified environment in 5% carbon dioxide.
Varying concentrations of each compound to be tested (in DMSO) were diluted in assay buffer (HBSS with Calcium/Magnesium (Lonza/BioWhittaker cat #10-527F)/0.1% BSA (Sigma Aldrich cat # A7409-1L)/20 mM HEPES (Lonza/BioWhittaker cat #17-737E) containing 100 μM 3-isobutyl-1-methylxanthin (IBMX; Sigma cat #15879). The final DMSO concentration is 1%.
After 48 hours, the growth media was removed from the assay plate wells, and the cells were treated with 20 μL of the serially diluted compound in assay buffer for 30 minutes at 37° C. in a humidified environment in 5% carbon dioxide. Following the 30 minute incubation, 10 μL of labeled d2 cAMP and 10 μL of anti-cAMP antibody (both diluted 1:20 in cell lysis buffer; as described in the manufacturer's assay protocol) were added to each well of the assay plate. The plates were then incubated at room temperature and after 60 minutes, changes in the HTRF signal were read with an Envision 2104 multi-label plate reader using excitation of 330 nm and emissions of 615 and 665 nm. Raw data were converted to nM cAMP by interpolation from a cAMP standard curve (as described in the manufacturer's assay protocol) and the percent effect was determined relative to a saturating concentration of the full agonist GLP-17-36 (1 μM) included on each plate. EC50 determinations were made from agonist dose-response curves analyzed with a curve fitting program using a 4-parameter logistic dose response equation.
Assay [2] deals with human GLP-1R (Homo sapiens (Human), UniProt P43220, L260F). Nature of the assay: CHO GLP-1R Clone C6 - Assay 2 (HTRF cAMP agonist assay, low receptor density). The note with it: for Emax: read-out: Assay 2 Emax (%), CHO GLP-1R Clone C6 (low receptor density), arithmetic mean, relative to saturating GLP-1 (1 μM). Background: In TR-FRET formats the signal depends on donor and acceptor labels being close together.
Sequence of human GLP-1R (Homo sapiens (Human), UniProt P43220, L260F) (P43220 24-463 L260F): as the sequence (P43220 24-463 G168S limits assumed) above, with S145G, L237F counted along it
Protocol: CHO GLP-1R Clone C6—Assay 2
GLP-1R-mediated agonist activity was determined with a cell-based functional assay utilizing an HTRF (Homogeneous Time-Resolved Fluorescence) cAMP detection kit (cAMP HI Range Assay Kit; Cis Bio cat #62AM6PEJ) that measures cAMP levels in the cell. The method is a competitive immunoassay between native cAMP produced by the cells and exogenous cAMP labeled with the dye d2. The tracer binding is visualized by a mAb anti-cAMP labeled with Cryptate. The specific signal (i.e. energy transfer) is inversely proportional to the concentration of cAMP in either a standard or an experimental sample.
The human GLP-1R coding sequence (NCBI Reference Sequence NP_002053.3, including naturally-occurring variant Leu260Phe) was subcloned into pcDNA5-FRT-TO and a clonal CHO cell line stably expressing a low receptor density was isolated using the Flp-In™ T-Rex™ System, as described by the manufacturer (ThermoFisher).
Cells were removed from cryopreservation, re-suspended in 40 mL of Dulbecco's Phosphate Buffered Saline (DPBS—Lonza Cat #17-512Q) and centrifuged at 800×g for 5 minutes at 22° C. The DPBS was aspirated, and the cell pellet was re-suspended in 10 mL of complete growth medium (DMEM:F12 1:1 Mixture with HEPES, L-Gln, 500 mL (DMEM/F12 Lonza Cat #12-719F), 10% heat inactivated fetal bovine serum (Gibco Cat #16140-071), 5 mL of 100× Pen-Strep (Gibco Cat #15140-122), 5 mL of 100×L-Glutamine (Gibco Cat #25030-081), 700 μg/mL Hygromycin (Invitrogen Cat #10687010) and 15 μg/mL Blasticidin (Gibco Cat # R21001). A 1 mL sample of the cell suspension in growth media was counted on a Becton Dickinson ViCell to determine cell viability and cell count per mL. The remaining cell suspension was then adjusted with growth media to deliver 1600 viable cells per well using a Matrix Combi Multidrop reagent dispenser, and the cells were dispensed into a white 384 well tissue culture treated assay plate (Corning 3570). The assay plate was then incubated for 48 hours at 37° C. in a humidified environment (95% O2, 5% CO2)
Varying concentrations of each compound to be tested (in DMSO) were diluted in assay buffer [HBSS with Calcium/Magnesium (Lonza/BioWhittaker cat #10-527F)/0.1% BSA (Sigma Aldrich cat # A7409-1L)/20 mM HEPES (Lonza/BioWhittaker cat #17-737E)] containing 100 μM 3-isobutyl-1-methylxanthin (IBMX; Sigma cat #15879). The final DMSO concentration in the compound/assay buffer mixture is 1%.
After 48 hours, the growth media was removed from the assay plate wells, and the cells were treated with 20 μL of the serially diluted compound in assay buffer for 30 minutes at 37° C. in a humidified environment (95% O2, 5% CO2). Following the 30 minute incubation, 10 μL of labeled d2 cAMP and 10 μL of anti-cAMP antibody (both diluted 1:20 in cell lysis buffer; as described in the manufacturer's assay protocol) were added to each well of the assay plate. The plates were then incubated at room temperature and after 60 minutes, changes in the HTRF signal were read with an Envision 2104 multi-label plate reader using excitation of 330 nm and emissions of 615 and 665 nm. Raw data were converted to nM cAMP by interpolation from a cAMP standard curve (as described in the manufacturer's assay protocol) and the percent effect was determined relative to a saturating concentration of the full agonist GLP-1 (1 μM) included on each plate. EC50 determinations were made from agonist dose response curves analyzed with a curve fitting program using a 4-parameter logistic dose response equation.

Setting [3] is: read-out: Assay 2 EC50, CHO GLP-1R Clone C6 (low receptor density), cAMP HTRF, geometric mean.
[4] abbreviates: Assay 2 EC50 (nM), CHO GLP-1R Clone C6 (low receptor density), cAMP HTRF, geometric mean.

Usually EC50 stands for the concentration at which the effect is half-maximal. In general, Emax refers to the maximal effect, on the per cent scale that the assay sets. As for `COCCn1c(CN2CCC(c3cccc4c3OC(C)(c3ccc(Cl)cc3)O4)CC2)nc2ccc(C(=O)O)cc21` (stereo not drawn) [Example 33, 2-({4-[2-(4-chlorophenyl)-2-methyl-1,3-benzodioxol-4-yl]piperidin-1-yl}methyl)-1-(2-methoxyethyl)-1H-benzimidazole-6-carboxylic acid], the values for the EC50 on human GLP-1R [1] and on human GLP-1R [2] (setting [3]) were 2.6 nM and 100 nM, respectively. In addition, the Emax came to 85% at human GLP-1R [1] and 86% at human GLP-1R [2].
As to `COCCn1c(CN2CCC(c3cccc4c3OC(C)(c3ccc(OC)cc3)O4)CC2)nc2ccc(C(=O)O)cc21` (stereo not drawn) [Example 32, 1-(2-methoxyethyl)-2-({4-[2-(4-methoxyphenyl)-2-methyl-1,3-benzodioxol-4-yl]piperidin-1-yl}methyl)-1H-benzimidazole-6-carboxylic acid], the EC50 stood at 18 nM at human GLP-1R [1] and 450 nM on human GLP-1R [2] (setting [3]). The Emax at human GLP-1R [1] amounted to 86%; at human GLP-1R [2] it was 87%.
The corresponding values for `COCCn1c(CN2CCC(c3cccc4c3OC(C)(c3ccc(Cl)cc3F)O4)CC2)nc2ccc(C(=O)O)cc21` (stereo not drawn) [Example 24, 2-({4-[2-(4-chloro-2-fluorophenyl)-2-methyl-1,3-benzodioxol-4-yl]piperidin-1-yl}methyl)-1-(2-methoxyethyl)-1H-benzimidazole-6-carboxylic acid] are 1.4 nM, 49 nM, 82% and 110%.
The corresponding values for `CCn1nncc1Cn1c(CN2CCC(c3cccc4c3OC(C)(c3ccc(Cl)cc3F)O4)CC2)nc2ccc(C(=O)O)cc21` (stereo not drawn) [Example 76, 2-({4-[2-(4-chloro-2-fluorophenyl)-2-methyl-1,3-benzodioxol-4-yl]piperidin-1-yl}methyl)-1-[(1-ethyl-1H-1,2,3-triazol-5-yl)methyl]-1H-benzimidazole-6-carboxylic acid] are 0.77 nM, 7.6 nM, 93% and 100%.
Regarding `O=C(O)c1ccc2nc(CN3CCC(c4cccc5c4O[C@H](c4ccc(Cl)cc4F)O5)CC3)n(C[C@@H]3CCO3)c2c1` [Example 4, Ammonium 2-({4-[(2R)-2-(4-chloro-2-fluorophenyl)-1,3-benzodioxol-4-yl]piperidin-1-yl}methyl)-1-[(2S)-oxetan-2-ylmethyl]-1H-benzimidazole-6-carboxylate], the EC50 on human GLP-1R [1] was 1600 nM; at human GLP-1R [2] (setting [3]), more than 20000 nM; on human GLP-1R [2] (read-out: EC50 in Assay 2, CHO GLP-1R Clone C6, cAMP, geometric mean of replicates), more than 20000 nM. The compound also returned an Emax at human GLP-1R [1] of 87%.
`CC1(c2ccc(Cl)cn2)Oc2cccc(C3CCN(Cc4nc5ccc(C(=O)O)cc5n4C[C@@H]4CCO4)CC3)c2O1` (single isomer, unassigned) [Example 10]: the results for the maximal response (Emax) on human GLP-1R [1] and on human GLP-1R [2] were 99% and 96%, respectively.
Regarding `COCCn1c(CN2CCN(c3cccc4c3OC(c3ccc(Cl)cc3F)O4)CC2)nc2ccc(C(=O)O)cc21` (single isomer, unassigned) [Example 1, 2-({4-[2-(4-Chloro-2-fluorophenyl)-1,3-benzodioxol-4-yl]piperazin-1-yl}methyl)-1-(2-methoxyethyl)-1H-benzimidazole-6-carboxylic Acid], at human GLP-1R [1], the EC50 stood at 880 nM and the maximum response (Emax) stood at 99%. Moreover, at human GLP-1R [2] (setting [4]), the EC50 was more than 20000 nM.
For the compound `COCCn1c(CN2CCC(c3cccc4c3OC(C)(c3ccc(OC)cc3Cl)O4)CC2)nc2ccc(C(=O)O)cc21` (stereo not drawn) [Example 83, 2-({4-[2-(2-chloro-4-methoxyphenyl)-2-methyl-1,3-benzodioxol-4-yl]piperidin-1-yl}methyl)-1-(2-methoxyethyl)-1H-benzimidazole-6-carboxylic acid], the EC50 is 3.4 nM at human GLP-1R [1] and 44 nM at human GLP-1R [2] (setting [3]). For the same compound, the Emax was found to be 85% at human GLP-1R [1] and 88% at human GLP-1R [2].
In the case of `CC1(c2ccc(C#N)cc2F)Oc2cccc(C3CCN(Cc4nc5ccc(C(=O)O)cc5n4C[C@@H]4CCO4)CC3)c2O1` (single isomer, unassigned) [Example 8], the EC50 on human GLP-1R [1] amounted to 0.3 nM; on human GLP-1R [2] (setting [4]), 3.6 nM. Moreover, the Emax at human GLP-1R [1] was determined as 92%; at human GLP-1R [2], 91%.
